In patent publication US20200399250A1, “Pyrimidine Derivatives as Tropomyosin Receptor Kinase A (TRKA) Inhibitors” (BIOMED X GMBH, priority 2017, published 2020):
Where “and” joins values, the source holds several entries; their conditions need not be identical. Identical values can stand only once. Entries after “also recorded” stand apart in the source; their conditions may differ.

Experiments:
AurA = biological target: T1, AurA (Homo sapiens, UniProt O14965); test: KdELECT Kd measurement (KINOMEscan), AurA; format: binding
T1 sequence (O14965 1-403): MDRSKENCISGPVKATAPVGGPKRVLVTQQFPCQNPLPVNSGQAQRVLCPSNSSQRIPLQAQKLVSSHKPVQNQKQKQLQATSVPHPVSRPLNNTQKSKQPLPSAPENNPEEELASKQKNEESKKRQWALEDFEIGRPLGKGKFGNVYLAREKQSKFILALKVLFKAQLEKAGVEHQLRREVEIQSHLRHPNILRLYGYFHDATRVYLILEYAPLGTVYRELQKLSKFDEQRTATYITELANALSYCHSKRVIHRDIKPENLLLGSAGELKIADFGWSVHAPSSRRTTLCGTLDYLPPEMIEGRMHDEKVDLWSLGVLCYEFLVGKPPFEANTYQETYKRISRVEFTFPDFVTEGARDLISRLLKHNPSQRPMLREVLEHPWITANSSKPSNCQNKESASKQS
Protocol: Kd measurements were done via the KdELECT product service from DiscoverX Corporation (Freemont, Calif., USA) which also employs the KINOMEscan technology. Here, inhibitor binding constants (Kd values) are calculated from duplicate 11-point dose-response curves.

panel of 97 kinases = test: Selectivity profiling, scanEDGE kinase panel (KINOMEscan); format: binding; settings: 100 nM, cut-off <35% ctrl
Protocol: Selectivity profiling was done over a panel of 97 kinases at 100 nM concentration (scanEDGE assay panel from Discover X, which also uses the KINOMEscan technology, whereat KIT(D816V) and KIT (V559D, T6701) were replaced by TrkB and TrkC). […] The employed profiling panel consisted of the following kinases: ABL1(T3151)-phosphorylated, ABL1-nonphosphorylated, ABL1-phosphorylated, ACVR1B, ADCK3, AKT1, AKT2, ALK, AURKA, AURKB, AXL, BMPR2, BRAF, BRAF (V600E), BTK, CDK11, CDK2, CDK3, CDK7, CDK9, CHEK1, CSF1R, CSNK1D, CSNK1G2, DCAMKL1, DYRK1B, EGFR, EGFR (L858R), EPHA2, ERBB2, ERBB4, ERK1, FAK, FGFR2, FGFR3, FLT3, GSK3B, IGF1R, IKK-alpha, IKK-beta, INSR, JAK2 (JH1domain-catalytic), JAK3 (JH1domain-catalytic), JNK1, JNK2, JNK3, KIT, LKB1, MAP3K4, MAPKAPK2, MARK3, MEK1, MEK2, MET, MKNK1, MKNK2, MLK1, p38-alpha, p38-beta, PAK1, PAK2, PAK4, PCTK1, PDGFRA, PDGFRB, PDPK1, PIK3C2B, PIK3CA, PIK3CG, PIM1, PIM2, PIM3, PKAC-alpha, PLK1, PLK3, PLK4, PRKCE, RAF1, RET, RIOK2, ROCK2, RSK2 (Kin. Dom. 1-N-terminal), SNARK, SRC, SRPK3, TGFBR1, TIE2, TRKA, TRKB, TRKC, TSSK1B, TYK2 (JH1domain-catalytic), ULK2, VEGFR2, YANK3, ZAP70

[1] = biological target: full-length human TrkA receptor (Homo sapiens, UniProt P04629); test: PathHunter cellular functional assay, antagonism of β-NGF; format: cell-based; settings: antagonism at EC80 (0.03 μg/ml) of β-NGF; read-out: Cellular assay [RC50]
Chain of full-length human TrkA receptor (P04629 33-796): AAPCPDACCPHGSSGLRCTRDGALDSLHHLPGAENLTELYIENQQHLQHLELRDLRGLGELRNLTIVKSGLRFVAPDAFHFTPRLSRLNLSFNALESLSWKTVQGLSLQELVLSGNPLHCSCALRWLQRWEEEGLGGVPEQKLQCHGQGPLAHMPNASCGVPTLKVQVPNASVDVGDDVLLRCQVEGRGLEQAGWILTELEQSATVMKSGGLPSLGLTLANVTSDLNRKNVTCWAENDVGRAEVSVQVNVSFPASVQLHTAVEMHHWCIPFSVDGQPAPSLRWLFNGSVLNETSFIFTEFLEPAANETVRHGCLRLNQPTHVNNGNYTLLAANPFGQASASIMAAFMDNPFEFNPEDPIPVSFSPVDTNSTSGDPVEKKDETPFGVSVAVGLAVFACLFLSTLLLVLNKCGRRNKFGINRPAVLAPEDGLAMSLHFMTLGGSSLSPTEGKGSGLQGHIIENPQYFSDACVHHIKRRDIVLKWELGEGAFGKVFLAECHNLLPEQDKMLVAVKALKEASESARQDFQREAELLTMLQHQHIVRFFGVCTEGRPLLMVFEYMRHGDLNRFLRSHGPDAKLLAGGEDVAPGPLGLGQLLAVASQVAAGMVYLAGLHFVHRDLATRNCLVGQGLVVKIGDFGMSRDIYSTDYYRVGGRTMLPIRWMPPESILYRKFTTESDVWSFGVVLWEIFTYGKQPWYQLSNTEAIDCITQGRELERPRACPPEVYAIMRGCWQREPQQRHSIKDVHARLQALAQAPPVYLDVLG
Chain of full-length human TrkA receptor (P01138 122-241 partner): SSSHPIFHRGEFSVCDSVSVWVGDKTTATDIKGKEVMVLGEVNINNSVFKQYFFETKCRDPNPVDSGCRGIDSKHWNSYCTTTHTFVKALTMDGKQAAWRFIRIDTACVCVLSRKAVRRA
Excerpt: The two compounds a1 and b7 were additionally tested in a functional assay using the PathHunter® technology (DiscoverX Corporation, Freemont, Calif., USA; https://www.discoverx.com/technologies-platforms/enzyme-fragment-complementation-technoloqy/cell-based-efc-assays/protein-protein-interactions/kinases-cell-based-(rtk-ctk)). In this assay, the full-length human TrkA receptor (i.e. including ligand-binding and kinase domains) is expressed as a C-terminal (intracellular) fusion with a small peptide epitope, called Prolink™ (PK). Furthermore, a SH2 domain containing protein (i.e. Shc1) is co-expressed with a larger Enzyme Acceptor (EA) fragment. Activation of the TrkA receptor by adding the agonist ligand (β-NGF), leads to the auto-phosphorylation of the kinase and subsequent binding of the Shc1-EA protein. That recruitment results in an active B-galactosidase enzyme that is detected by addition of a chemiluminescent substrate.
Compounds were tested for antagonism using EC80 concentration (i.e. 0.03 μg/ml) of β-NGF. Data was normalized to the maximal and minimal response observed in the presence of EC80 agonist ligand (3-NGF) and vehicle (DMSO, final concentration 1%), respectively.

C57Bl/6 mice = test: Toxicity after i.v. injection in mice; format: in vivo; settings: for Toxicity: single animal
Protocol: . Dimethylsulfoxide (DMSO) from J. T. Baker (Germany), Cremophor EL (Polyoxyethyleneglycerol triricinoleate 35 castor oil) from BASF (Germany), and Saline solution 0.9% from B. Braun (Germany) were used in this study. Two types of formulations were prepared: a formulation with a high dose of compound a1 (9 mM) and a formulation with a low dose of compound a1 (1.8 mM); c.f. Tables 5 and 6. […]. The formulation with the high dose of a1 was prepared using 9% a1-DMSO stock solution, 10% Cremophor EL, and 81% saline. The formulation with the low dose of a1 contained 1.8% a1-DMSO stock solution, 5% Cremophor EL, and 93.2% saline; c.f. FIG. 2.
Experiments were carried out in accordance with the EU Directive 86/609/EEC on the protection of animals used for scientific purposes. […]; c.f. Table 6. After injection, the mice were returned to their home cages, and after 1 hour, the mice were anaesthetized with isoflurane. Terminal blood samples were collected using a 1 ml syringe (20-G needle, B. Braun). The blood was immediately transferred into a 1.3 ml heparin-coated tube (Sarstedt). Plasma was collected by centrifugation at 1500 g for 15 minutes. The supernatant was placed in a 1.5 ml tube on dry ice and stored at −20° C.

SMILES: CN1CCN(c2cc(Nc3cc(-c4cccc(F)c4)[nH]n3)nc(Sc3ccccc3)n2)CC1 [a1, N-[5-(3-fluorophenyl)-1H-pyrazol-3-yl]-6-(4-methylpiperazin-1-yl)-2-(phenylsulfanyl)pyrimidin-4-amine]
- AurA [pKd] (AurA): 5.3
- Kd (AurA; duplicate 11-point dose-response curves): 4500 nM
- # Hits (panel of 97 kinases; N = 92 non-mutant kinases): 7
- List of inhibited kinases (panel of 97 kinases): TrkA, TrkB, TrkC, FLT3, KIT,; also recorded: PDGFRb, RET
- Selectivity Score (panel of 97 kinases; inhibited kinases/tested kinases): 0.08 and 0.076
- IC50 [1]: 26 nM
- signs of toxicity (C57Bl/6 mice; 5 and 25 mg/kg i.v., all animals): none of the animals showed any obvious signs of toxicity; also recorded: none of the animals showed any toxic sign
- Toxicity (C57Bl/6 mice; a1_high formulation, 25 mg/kg i.v.): None
- Toxicity (C57Bl/6 mice; a1_low formulation, 5 mg/kg i.v.): None
